Assay results as given in patent US20220218614A1, “IONIZABLE CATIONIC LIPIDS AND LIPID NANOPARTICLES, AND METHODS OF SYNTHESIS AND USE THEREOF” (Tidal Therapeutics, Inc., priority 2020, published 2022).
“Also recorded” adds a separate entry of the source.

Assays:
human CD8 T cells = experiment: Transfection of human CD8 T cells with Fab-targeted Cy5/GFP mRNA LNPs; type: cell-based; conditions: Lipid 8 LNP, Cy5/GFP mRNA approximately 2.5 μg/mL, approximately 24 hr, Fab conjugate post-inserted
Description: LNPs were prepared using the mixing process described in Example 6, the buffer exchange process described in Example 21. hSP34 and TRX2 Fab-lipid conjugates generated from methods described in Example 4 and a non-T cell specific anti-HER2 lipid-conjugate (Nellis D F, Ekstrom D L, Kirpotin D B, Zhu J, Andersson R, Broadt T L, Ouellette T F, Perkins S C, Roach J M, Drummond D C, Hong K, Marks J D, Park J W and Giardina S L (2005) Preclinical manufacture of an anti-HER2 scFv-PEG-DSPE, liposome-inserting conjugate. 1. Gram-scale production and purification. Biotechnol Prog 21:205-220) were post-inserted at various densities (SP34 0.6-17 g/mol; TRX2 3-9 g/mol; anti-HER2 17 g/mol) into LNPs containing Lipid 8, Cy5 labeled GFP mRNA and GFP mRNA (1:9 Cy5:GFP mass ratio) by adding conjugate and LNPs together and heating the solution without mixing in a thermal cycler at 60 C for 60 min and cooled to 4° C. for 3-5 min. […] After transfection, LNP binding efficiency (Cy5) and transfection efficiency (GFP) was evaluated by flow cytometry. Supernatants were measured for human IFNγ concentration using a commercially available ELISA kit under manufacturers recommended conditions (R&D Systems Duoset). […]

[1] = Apparent pKa of LNPs by TNS fluorescent probe; type: physicochemical; conditions: LNP made with the named ionizable lipid; pH at 50% of maximum TNS fluorescence
Excerpt: This example describes the fluorescent dye based method used for measurement of the apparent pKa of the lipid nanoparticles. Apparent pKa determines the nanoparticle surface charge under physiological pH conditions, typically a pKa value in the endosomal pH range (6-7.4) results in LNPs that are neutral or slightly charged at plasma or the extracellular space (pH 7.4) and become strongly positive under acidic endosomal environments. This positive surface charge drives fusion of the LNP surface with negatively charged endosomal membranes resulting in destabilization and rupture of the endosomal compartment and LNP escape into the cytosolic compartment, a critical step in cytosolic delivery of mRNA and protein expression via engagement of the cells ribosomal machinery.
The apparent pKa of LNPs made using ionizable Lipids 2, 5 (synthesized as described in example 1), 6 and 7 (synthesized using method analogous to Lipid 2, 5, respectively, except using diethyl amine instead of dimethyl amine to incorporate the tertiary amine head group) were determined by 6-(p-Toluidino)-2-naphthalenesulfonic acid (TNS) fluorescence measurement in aqueous buffers covering a range of pH values (pH 4-pH 10). TNS is non-fluorescent when free in solution, but which fluoresces strongly when associated with a positively charged lipid nanoparticle. At a pH values below the pKa of the nanoparticle, positive LNP surface charge results in dye recruitment at the particle interface resulting in TNS fluorescence. At pH values above the LNP pKa no fluorescence is observed. The apparent pKa of the LNP is reported as the pH at which the fluorescence is at 50% of its maximum, as determined using a four-point logistic curve fit.

[2] = test system: primary human T-cells (CD3+ T cells); experiment: In vitro LNP transfection of primary human T-cells (GFP, Cy5 or DiI, viability by FACS); type: cell-based
Excerpt: This example describes the protocol used for in vitro LNP transfections in primary human T-cells. This method is used to assess LNP in vitro efficacy in relevant target cells (CD3+ T cells) by first transfecting the cells using LNPs loaded with mRNA encoding for a reporter gene, such as GFP mRNA, and then assessing transfection by measuring reporter gene expression by fluorescence-[…] cell sorting (FACS). Additionally, particle association with cells may be observed by in the same assay by labeling individual nanoparticle components, such as the mRNA, with a fluorescent dye, such as Cy5, and then observing cell/dye association by FACS.
CD3+ T cells were isolated from frozen peripheral blood mononuclear cells using an EasySep Human T Cell Isolation Kit on a RoboSep automated cell isolation system from […]. T cells were plated into a flat bottom 96-well plate in RPMI cell culture media supplemented with glutamax, 10% fetal bovine serum, and 40 ng/mL IL2. 100 μL of cell suspension was seeded per well at a density of 1M T cells/mL (100K T cells/well). Cells were allowed to rest for two hours in a 37° C. incubator, and then were transfected by gently adding 10 μL of a 22 μg/mL (by mRNA) nanoparticle suspension, resulting in a final mRNA concentration of 2 μg/mL. Cells were gently mixed with a pipette and then incubated for 24 hours in a 37° C. incubator. After incubation the cells were analyzed using an ThermoFisher Attune NXT flow cytometer. Cy5 was detected using a 638 nm laser with 670/14 nm filter. eGFP was detected using a 488 nm laser and a 530/30 nm filter. Data were analyzed using FlowJo software from BD biosciences. FACS data were first gated to exclude doublets and dead cells and then gated for GFP and Cy5. Gates for GFP+ and Cy5+were set such that a control sample (PBS treated T cells) was <0.1% positive.
CD3+ T cells were isolated from frozen peripheral blood mononuclear cells using an EasySep Human T Cell Isolation Kit on a RoboSep automated cell isolation system from […]. T cells were plated into a round bottom 96-well plate in RPMI cell culture media supplemented with glutamax, 10% fetal bovine serum, pen-strep, and 40 ng/mL IL-2. 100 μL of cell suspension was seeded per well at a density of 1M T cells/mL (100K T cells/well). Cells were allowed to rest for two hours in a 37° C. incubator, and then were transfected by gently adding 10 μL of a 22 μg/mL (by mRNA) nanoparticle suspension, resulting in a final mRNA concentration of 2 μg/mL (unless otherwise noted). Cells were gently mixed with a pipette and then incubated for 24 hours in a 37° C. incubator. After incubation the cells were diluted with FACS buffer (BD 554657) and analyzed using a BD Fortessa flow cytometer. Data were analyzed using FlowJo software from BD biosciences.

[3] = Quant-iT RiboGreen RNA assay: dye accessible and total (Triton) mRNA content, encapsulation; type: physicochemical; conditions: Table 9: Lipid 2 and Lipid 6 LNP
Description: RNA content of the nanoparticles is measured using Thermo Fisher Quant-iT RiboGreen RNA Assay Kit. Dye accessible RNA, which includes both non-incorporated RNA and RNA that is near the surface of the nanoparticle, is measured by diluting the nanoparticles to approximately 1 μg/mL mRNA using HEPES buffered saline, and then adding Quant-iT reagent to the mixture. Total RNA content is measured by diluting the particles to 1 μg/mL mRNA using HEPES buffered saline, disrupting the nanoparticles by heating them to 60° C. for 30 minutes in HEPES buffered saline containing 0.5% Triton, and then adding Quant-It reagent. RNA is quantified by measuring fluorescence at 485/535 nm, and concentration is determined relative to a contemporaneously run RNA standard curve.

[4] = Zeta potential of LNPs by laser Doppler electrophoresis in 5 mM pH 5.5 MES and 5 mM pH 7.4 HEPES buffer; type: physicochemical; conditions: pH 5.5 MES and pH 7.4 HEPES buffer
Description: (§1) Samples of the LNPs produced in Example 2 were characterized to determine the average hydrodynamic diameter, zeta potential, and mRNA content (total and dye-accessible). The hydrodynamic diameter was determined by dynamic light scattering (DLS) using a Zetasizer model ZEN3600 (Malvern Pananalytical, UK). The zeta potential was measured in 5 mM pH 5.5 MES buffer and 5 mM pH 7.4 HEPES buffer by laser Doppler electrophoresis using the Zetasizer.

[5] = Hydrodynamic diameter and polydispersity of LNPs by dynamic light scattering (DLS), Zetasizer; type: physicochemical; conditions: insertion of anti-CD3 hSP34-PEG2k-DSPE conjugate
Description: as §1

[6] = Freeze thaw stability of LNP formulations (storage at 4° C., −80° C. or flash frozen in liquid nitrogen; DLS); type: physicochemical; conditions: one freeze thaw cycle, relative to 4 C storage
Description: Following the preparation of the targeted LNP formulation, the formulation was split into two portions. One portion was exchanged into 40 mM pH 7.4 HEPES buffer, and the other portion was exchanged into 30 mM pH 7.4 Tris buffer. The buffer exchange was performed using a discontinuous diafiltration method where the LNP formulation sample was transferred into a centrifugal ultrafiltration device with […] MWCO regenerated cellulose membrane (Amicon Ultra-4, MilliporeSigma, Massachusetts, US), then diluted 10-fold with the exchange buffer, and concentrated back to the original volume by centrifuging at 500 rcf. This dilution and concentration step was repeated one additional time. The exchanged LNP samples were then divided into separate aliquots that were mixed with concentrated sodium chloride and sucrose solutions to provide the final freeze-thaw sample formulations. Samples of each freeze-thaw formulation were then stored at 4° C., frozen at −80° C., or flash frozen in liquid nitrogen. The samples were later thawed at room temperature and tested for size by DLS and in vitro T cell transfection.

[7] = theoretical total mRNA 45 μg/mL

Compound | transfection (% GFP+, GFP MFI) and binding (% Cy5+, Cy5 MFI), in words (human CD8 T cells) | apparent pKa of LNP (TNS) [1] | T-cell transfection and cell association after freeze-thaw, in words ([2]; after one freeze thaw cycle, relative to 4 C storage) | GFP protein expression (% GFP+ cells, GFP MFI), in words ([2]; hSP34 targeted LNP with GFP mRNA, 24 hours) | LNP association with cells (% Cy5+/Cy5 MFI or % DiI+/DiI MFI), in words ([2]; hSP34 targeted LNP, 24 hours) | T-cell viability / tolerability, in words ([2]; hSP34 targeted LNP, 24 hours, dose as in the value) | % Dye Accessible mRNA [3] | Measured total (Triton method) mRNA [3, 7] | Ribogreen Dye Accessible mRNA [3, 7] | LNP surface charge (zeta potential), in words [4] | change in particle size and PDI upon conjugate insertion [5] | LNP size and polydispersity after freeze-thaw, in words [6]
Hu291: anti-CD3 Fab, SEQ ID NO: 4 and 5 | high levels of % Cy5+ T cells | – | – | – | – | – | – | – | – | – | – | –
CCCCC/C=C\C/C=C\CCCCCCCC(=O)OC[C@H](COC(=O)CCCN(CC)CC)OC(=O)CCCCCCC/C=C\C/C=C\CCCCC [Lipid 6] | – | ~7 | retained function after being subjected to freeze-thaw stress | Dose dependent expression of GFP protein | equally associated with cells | well tolerated by T-cells at all LNP doses tested; also recorded: moderately higher viability at higher dose of 2 μg/mL | 15% | 40 µg/mL | 6 µg/mL | greater positive surface charge relative to Lipid 12 and 13 | significantly greater size distribution changes compared to Lipid 12 and Lipid 13 LNPs; also recorded: moderate changes in particle size and PDI | minor changes in particle size distributions after frozen storage at −80 C
